The numbers were not newly measured in patent publication US20060269513A1, “Pheromone composition” (Kiotech Limited, priority 1997, published 2006), which cites them from elsewhere.

The subject of the data set is humans. As to conditions: human olfactory threshold.
On to `CCCCC(C)CCC(=O)O` (stereo not shown) [4-Methyloctanoic acid], for which the “Threshold concentration for humans (odour)” value (shortened to “Threshold concentration”) is listed as “in the region of ppb”.

Consider `C[C@]12CC[C@@H](O)C[C@@H]1CC[C@@H]1[C@@H]2CC[C@]2(C)C=CC[C@@H]12` [5-alpha-androst-16-en-3-α-ol], for which the “Threshold concentration” value is recorded as “in the low ppb range”. For `CN(C)C` [Trimethylamine], the “Threshold concentration” value was “about 1 ppb”. In the case of `NCCCCN` [putrescine, 1,4-diaminobutane], the “Threshold concentration” value is “in the ppb range”.
